# Reference: patent US20230086702A1, “SUBSTITUTED 2-AMINO-PYRAZOLYL-[1,2,4]TRIAZOLO[1,5A]PYRIDINE DERIVATIVES AND USE THEREOF” (The Johns Hopkins University, priority 2019, published 2023)
# Where two headings read alike, the source gives them in different places.
# Tests used:
# LZK [1] = target: T1, LZK (Homo sapiens, UniProt O43283); assay: LZK biochemical assay (TR-FRET, MKK7 phosphorylation); settings: LZK catalytic domain, MKK7 substrate, 15 μM ATP
# T1 construct: 10 nM LZK, catalytic domain, Carna Biosiences in assay buffer; purchased Carna Biosciences ('Carna Biosiences' [sic])
# T1 sequence (O43283 168-409 limits assumed): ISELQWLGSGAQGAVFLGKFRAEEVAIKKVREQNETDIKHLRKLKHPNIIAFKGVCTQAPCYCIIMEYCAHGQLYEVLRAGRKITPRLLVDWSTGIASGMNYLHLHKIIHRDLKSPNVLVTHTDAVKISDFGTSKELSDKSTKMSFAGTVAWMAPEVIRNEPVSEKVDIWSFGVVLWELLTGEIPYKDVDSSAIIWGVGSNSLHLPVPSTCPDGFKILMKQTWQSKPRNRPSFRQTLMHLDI
# Protocol: (§1) LZK assay is a biochemical assay format designed to screen for inhibitors of LZK. Enzymatic activity of LZK is measured by monitoring phosphorylation of the physiological substrate MKK7 (MAP2K7, Dual specificity mitogen-activated protein kinase kinase 7). Phosphorylation is detected by a TR-FRET system whereby His-tagged MKK7 is labeled by a XL665-labeled anti-His antibody (FRET acceptor, emission 665 nm). LZK phosphorylates MKK7 at T275/S277 which is detected by an Eu-labeled anti-phospho-MKK7 (T275/S277) antibody (FRET donor, excitation 340 nm). Phosphorylation of MKK7 results in an increased TR-FRET signal (Ratio XL665-channel/Eu-channel) and inhibition of enzymatic activity of LZK decreases the TR-FRET signal.
# All indicated concentrations final concentrations.
# (§2) Detection buffer: 25 mM Tris/HCl pH 7.5, 100 mM EDTA, 100 mM NaCl, 200 mM KF, 0.01% Tween 20, 1:500 Smart Block.
# DLK [2] = target: T2, DLK (Homo sapiens, UniProt Q12852); assay: DLK biochemical assay (TR-FRET, MKK7 phosphorylation); settings: DLK catalytic domain, MKK7 substrate, 60 μM ATP
# T2 construct: 10 nM DLK, catalytic domain, Carna Biosiences; purchased Carna Biosciences ('Carna Biosiences' [sic])
# T2 sequence (Q12852 125-366 limits assumed): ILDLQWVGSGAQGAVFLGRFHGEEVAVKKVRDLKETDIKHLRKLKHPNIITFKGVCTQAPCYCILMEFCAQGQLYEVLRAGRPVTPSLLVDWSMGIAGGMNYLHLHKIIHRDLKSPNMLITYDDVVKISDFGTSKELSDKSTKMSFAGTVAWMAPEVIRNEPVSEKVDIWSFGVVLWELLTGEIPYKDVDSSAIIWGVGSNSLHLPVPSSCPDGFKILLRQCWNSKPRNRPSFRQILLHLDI
# Protocol: as §1, with “DLK assay” for “LZK assay”, “of DLK.” for “of LZK.”, “of DLK” for “of LZK”, “nm). DLK” for “nm). LZK”, “at T275/S277,” for “at T275/S277”
# All indicated concentrations are final concentrations.
# as §2
# DLK [3] = target: T2, DLK; assay: as above
# How it was run: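 TR-FRET read-out (665/Eu ratio) of MKK7 T275/S277 phosphorylation, with inhibition lowering the signal. Final conditions: 10 nM DLK catalytic domain, 15 nM MKK7, 60 μM ATP, 90 min at RT. Detection incubation 16 h at 37° C in 1536-well or 4° C in 384-well format.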
# LZK [4] = target: T1, LZK; assay: LZK biochemical assay (TR-FRET, MKK7 phosphorylation)
# How it was run: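 Read-out is HTRF: Eu-labelled anti-phospho-MKK7 (T275/S277) and XL665 anti-His, incubated 16 h at 32 °C, with a drop in signal marking inhibition. Reaction beforehand: 10 nM LZK kinase domain, 15 nM His-MKK7, 15 µM ATP (final) for 90 min at room temperature, pH 7.5.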
SMILES,IC50 (LZK [1]),IC50 (DLK [2]),IC50 (DLK [3]),IC50 (LZK [4])
"CC[C@H](C)NC(=O)c1cc(-c2cnn(C(c3ccc(OCC(F)(F)F)nc3)C(C)C)c2)cn2nc(N)nc12 (single isomer, unassigned) [Example I-89]",2000 nM,230 nM,,
"CCC(c1ccc(C(F)F)nc1)n1cc(-c2cc(C(=O)N[C@@H](C)CC)c3nc(N)nn3c2)cn1 (single isomer, unassigned) [Example I-66]",4.1 nM,0.8 nM,,
"CC[C@@H](c1ccc(F)cc1)n1cc(-c2cc(C(=O)NC(C)CF)n3nc(N)nc3c2)cn1 (single isomer, unassigned) [Example I-149, 2-Amino-7-{1-[(15)-1-(4-fluorophenyl)propyl]-1H-pyrazol-4-yl}-N-(1-fluoropropan-2-yl)[1,2,4]triazolo[1,5-a]pyridine-5-carboxamide]",13 nM,1.7 nM,,
CC[C@H](C)NC(=O)c1cc(-c2cnn(C3CN(Cc4ccccc4)C3)c2)cn2nc(N)nc12 [Example I-5],15 nM,55 nM,,
"CCC(c1ccc(N2CCOCC2)cc1)n1cc(-c2cc(C(=O)N[C@@H](C)CC)c3nc(N)nn3c2)cn1 (single isomer, unassigned) [Example I-48]",120 nM,25 nM,,
"CC[C@H](C)NC(=O)c1cc(-c2cnn([C@H](c3ccccc3)C(C)C)c2)cc2nc(N)nn12 (single isomer, unassigned) [Example I-26]",18 nM,1.1 nM,,
"CC[C@H](C)NC(=O)c1cc(-c2cnn(C(c3ccc(C(F)(F)F)nc3)C(C)C)c2)cn2nc(N)nc12 (single isomer, unassigned) [Example I-74]",16 nM,10 nM,,
"CC(C)C(c1ccc(C(F)(F)F)nc1)n1cc(-c2cc(C(=O)N[C@H]3CCOC3)n3nc(N)nc3c2)cn1 (single isomer, unassigned) [Example I-182]",1.2 nM,0.3 nM,,
CC[C@H](C)NC(=O)c1cc(-c2cnn(C3CCC(F)(F)CC3)c2)cn2nc(N)nc12 [Example I-3],12 nM,66 nM,,
"CCC(c1ccc(N2CCOCC2)cc1)n1cc(-c2cc(C(=O)N[C@@H](C)CC)c3nc(N)nn3c2)cn1 (single isomer, unassigned) [Example I-49]",17 nM,1.5 nM,,
"CC[C@H](C)NC(=O)c1cc(-c2cnn([C@H](c3ccnc(OC)c3)C(C)C)c2)cc2nc(N)nn12 (single isomer, unassigned) [Example I-128]",3.3 nM,0.5 nM,,
"CC[C@@H](NC(=O)c1cc(-c2cnn(Cc3ccccc3)c2)cn2nc(N)nc12)C(F)(F)F (single isomer, unassigned) [Example I-134]",970 nM,230 nM,,
"CC(CF)NC(=O)c1cc(-c2cnn(CC3CC3)c2)cn2nc(N)nc12 (racemic) [Example I-137, 2-Amino-6-[1-(cyclopropylmethyl)-1H-pyrazol-4-yl]-N-[1-fluoropropan-2-yl][1,2,4]triazolo[1,5-a]pyridine-8-carboxamide]",150 nM,140 nM,,

# Further lines, results first:
IC50 (LZK [1]),IC50 (DLK [2]),IC50 (DLK [3]),IC50 (LZK [4]),SMILES
,,440 nM,210 nM,"CC(C)C(c1ccc(C(F)F)nc1)n1cc(-c2cc(-c3ccc(C(F)(F)F)nc3)n3nc(N)nc3c2)cn1 (single isomer, unassigned) [II-65, 7-(1-{1-[6-(Difluoromethyl)pyridin-3-yl]-2-methylpropyl}-1H-pyrazol-4-yl)-5-[6-(trifluoromethyl)pyridin-3-yl][1,2,4]triazolo[1,5-a]pyridin-2-amine]"
,,26 nM,57 nM,"CCC(c1ccc(OC(F)(F)F)nc1)n1cc(-c2cc(-c3ccc(=O)n(CC(F)(F)F)c3)c3nc(N)nn3c2)cn1 (single isomer, unassigned) [II-165, 5-[2-Amino-6-(1-{1-[6-(trifluoromethoxy)pyridin-3-yl]propyl}-1H-pyrazol-4-yl)[1,2,4]triazolo[1,5-a]pyridin-8-yl]-1-(2,2,2-trifluoroethyl)pyridin-2(1H)-one]"
,,380 nM,770 nM,"CC(C)C(c1ccc(C(F)(F)F)nc1)n1cc(-c2cc(-c3ccc(C(F)(F)F)nc3)c3nc(N)nn3c2)cn1 (single isomer, unassigned) [II-41, 6-(1-{2-Methyl-1-[6-(trifluoromethyl)pyridin-3-yl]propyl}-1H-pyrazol-4-yl)-8-[6-(trifluoromethyl)pyridin-3-yl][1,2,4]triazolo[1,5-a]pyridin-2-amine]"
,,25 nM,165 nM,"CCC(c1ccc(C(F)(F)F)cc1)n1cc(-c2cc(-c3cnn(CC(F)(F)F)c3)n3nc(N)nc3c2)cn1 (single isomer, unassigned) [II-131, 5-[1-(2,2,2-Trifluoroethyl)-1H-pyrazol-4-yl]-7-(1-{1-[4-(trifluoromethyl)phenyl]propyl}-1H-pyrazol-4-yl)[1,2,4]triazolo[1,5-a]pyridin-2-amine]"
,,7 nM,5.9 nM,"Nc1nc2c(-c3cc(CO)ccc3Cl)cc(-c3cnn(C(c4ccc(C(F)(F)F)nc4)C4CCOCC4)c3)cn2n1 (racemic) [II-4, {3-[2-Amino-6-(1-{tetrahydro-2H-pyran-4-yl[6-(trifluoromethyl)pyridin-3-yl]methyl}-1H-pyrazol-4-yl)[1,2,4]triazolo[1,5-a]pyridin-8-yl]-4-chlorophenyl}methanol]"
,,3.2 nM,6.3 nM,Nc1nc2cc(-c3cnn(C(c4ccc(C(F)(F)F)nc4)C4CCOCC4)c3)cc(-c3ccc(=O)n(CC(F)(F)F)c3)n2n1 (centres unmarked) [II-191]
,,39 nM,37 nM,CC(n1cc(-c2cc(-c3cnn(Cc4ccccc4)c3)cc3nc(N)nn23)cn1)C(F)(F)F (centres unmarked) [II-122]
,,23 nM,140 nM,"CC(C)C(c1ccc(C(F)(F)F)nc1)n1cc(-c2cc(-c3cnn(CC(F)(F)F)c3)n3nc(N)nc3c2)cn1 (single isomer, unassigned) [II-141, 7-(1-{2-Methyl-1-[6-(trifluoromethyl)pyridin-3-yl]propyl}-1H-pyrazol-4-yl)-5-[1-(2,2,2-trifluoroethyl)-1H-pyrazol-4-yl][1,2,4]triazolo[1,5-a]pyridin-2-amine]"
,,0.6 nM,2.6 nM,"Nc1nc2c(-c3cnn(CC(F)(F)F)c3)cc(-c3cnn(C(c4ccc(C(F)(F)F)nc4)C4CCOCC4)c3)cn2n1 (single isomer, unassigned) [II-118, 6-(1-{Tetrahydro-2H-pyran-4-yl[6-(trifluoromethyl)pyridin-3-yl]methyl}-1H-pyrazol-4-yl)-8-[1-(2,2,2-trifluoroethyl)-1H-pyrazol-4-yl][1,2,4]triazolo[1,5-a]pyridin-2-amine]"
,,12 nM,410 nM,"C[C@@H](CO)c1nnc(-c2cc(-c3cnn(Cc4cccc5cn[nH]c45)c3)cn3nc(N)nc23)s1 [II-199, (2S)-2-(5-{2-Amino-6-[1-(1H-indazol-7-ylmethyl)-1H-pyrazol-4-yl][1,2,4]triazolo[1,5-a]pyridin-8-yl}-1,3,4-thiadiazol-2-yl)propan-1-ol]"
,,8.4 nM,12 nM,CC(C)C(c1ccc(C(F)(F)F)nc1)n1cc(-c2cc(-c3cnn(CC4CC4(F)F)c3)n3nc(N)nc3c2)cn1 (centres unmarked) [II-142]
,,32 nM,150 nM,"Nc1nc2cc(-c3cnn(Cc4ccccc4)c3)cc(-c3cnn(C(F)F)c3)n2n1 [II-121, 7-(1-Benzyl-1H-pyrazol-4-yl)-5-[1-(difluoromethyl)-1H-pyrazol-4-yl][1,2,4]triazolo[1,5-a]pyridin-2-amine]"
